In patent publication US6573255B1, “Vitamin D analogues” (Leo Pharmaceutical Products Ltd., A/S, priority 1999, dated 2003):
Where two headings read alike, the source gives them in different places.

Columns and labels:
U937 leukemia cell = U937 leukemia cell assay (antiproliferative activity); format: cell-based; details: for U937, -log IC50: U937 leukemia cells; for U937, rel.: geometric mean of the ratios relative to 1α,25(OH)2D3, higher = more potent
Excerpt: (§1) The present invention provides a hitherto undisclosed series of vitamin D analogues which is characterised by the presence of an additional hydroxy group or halogen atom in the 26 position of the side chain.

[1] = system: MCF-7 mammary cancer cell; experiment: MCF-7 mammary cancer cell assay (antiproliferative activity); format: cell-based; details: for MCF-7, -log IC50: MCF-7 mammary cancer cells; for MCF-7, rel.: geometric mean of the ratios relative to 1α,25(OH)2D3, higher = more potent
Excerpt: as §1

HaCaT = HaCaT assay, a psoriasis model; format: cell-based; details: for HaCaT, rel.: geometric mean of the ratios relative to 1α,25(OH)2D3, higher = more potent; for HaCaT, -log IC50: HaCaT cells
Excerpt: as §1

[2] = in vitro model of metabolic stability, rat liver homogenate S-9; format: in vitro ADME
Excerpt: Another problem using vitamin D analogues in the non-topical treatment of hyperproliferative diseases, such as cancer, is metabolic stability in vivo. This stability has to be above a certain minimum level, for a compound to be used in practical therapy.

[3] = calcemic activity, rat calciuric model (urinary excretion of calcium)
Excerpt: as §1

[4] = relative to 1α,25(OH)2D3; cited from earlier work
mammary tumours = details: rats with mammary tumours, 1 μg/kg body weight for 28 days; cited from earlier work
[5] = chronically uraemic rats with secondary hyperparathyroidism; cited from earlier work
human carcinoma cells = details: in vitro; cited from earlier work
[6] = system: different types of cancer cells; details: brain glial tumor, MCF-7, NB4, HL-60, acute myeloid leukemia, MG-63 cells; cited from earlier work

Row | Compound | U937, -log IC50 (U937 leukemia cell) | U937, rel. (U937 leukemia cell) | MCF-7, -log IC50 [1] | MCF-7, rel. [1] | HaCaT, rel. (HaCaT) | T½ ([2]; rat liver homogenate S-9) [h] | Calcem.; in vivo ([3]; rat, in vivo) | HaCaT, -log IC50 (HaCaT) | S-9, metab. in vitr.: fraction left after 1 hour incubation ([2]; rat liver homogenate S-9, 1 hour incubation) | stability in in vitro model of metabolic stability ([2]; rat liver homogenate S-9, compared to seocalcitol and 1α,25(OH)2D3) | Calcem.; in vivo ([3]; rat calciuric model, geometric mean of the ratios relative to 1α,25(OH)2D3) | calcemic vitamin D activity, urinary excretion of calcium in rats, % of that of 1α,25(OH)2D3 [4] [%] | reduction of the initial tumour volume (mammary tumours) [%] | serum calcium concentration (mammary tumours) | plasma PTH level [5] | plasma phosphate level [5] | inhibiting the invasiveness of human carcinoma cells (human carcinoma cells) | inhibitory activity on proliferation of cancer cells [6] | S-9, metab. in vitr.: fraction left after 1 hour incubation [2] | half-life ([2]; rat) [h]
1 | C=C1/C(=C\C=C2/CCC[C@]3(C)[C@@H]([C@H](C)CCCC(C)(C)O)CC[C@@H]23)C[C@@H](O)C[C@@H]1O [1α,25(OH)2D3] | 7.5 ± 0.3 | 1.0 | 7.7 ± 0.3 | 1.0 | 1.0 | 2.5 | 1.0 |  |  |  |  |  |  |  |  |  |  |  |  | 
2 | C=C1C(=CC=C2CCCC3(C)C2CCC3C(C)C(C#CCC(O)(CC)CC)OCC)CC(O)CC1O (stereo not drawn) [CB1093, 20-epi-22-ethoxy-23-yne-24a, 26a, 27a, trishomo-1α,25(OH)2D3 vitamin D3] | 9.5 ± 0.1 | 74 | 10.2 ± 0.3 | 311 | 18 |  |  | 8.7 ± 0.9 | 0.02 | quite low | 0.27 | 27 | 49 | slight increase | significantly decreased | significantly decreased | potent activity | potent inhibitory activity |  | 
3 | C=C1C(=CC=C2CCCC3(C)C2CCC3C(C)C(C#CCC(O)(CC)C(C)O)OCC)CC(O)CC1O [Compound 103, 1(S),3(R)-Dihydroxy-20(R)-(5(S),6(S)-dihydroxy-1(S)-ethoxy-5-ethyl-2-heptyn-1-yl)-9,10-secopregna-5(Z),7(E),10(19)-triene] | 9.0 ± 0.2 | 36 | 9.9 ± 0.1 | 153 | 38 |  | 0.11 | 9.0 ± 0.3 |  |  |  |  |  |  |  |  |  |  | 0.43 | 
4 | C=C1/C(=C\C=C2/CCC[C@]3(C)[C@@H]([C@@H](C)[C@@H](C#CC[C@@](O)(CC)[C@@H](C)O)OCC)CC[C@@H]23)C[C@@H](O)C[C@@H]1O [Compound 108, 1(S),3(R)-Dihydroxy-20(R)-(5(S),6(R)-dihydroxy-1(S)-ethoxy-5-ethyl-2-heptyn-1-yl)-9,10-secopregna-5(Z),7(E),10(19)-triene] | 8.9 ± 0.2 | 49 | 9.8 ± 0.2 | 89 | 30 |  | 0.6 | 8.8 ± 0.2 |  |  |  |  |  |  |  |  |  |  | 0.29 | 
5 | C=C1/C(=C\C=C2/CCC[C@]3(C)[C@@H]([C@H](C)/C=C/C=C/C(O)(CC)CC)CC[C@@H]23)C[C@@H](O)C[C@@H]1O [seocalcitol] |  |  |  |  |  |  |  |  |  |  |  |  |  |  |  |  |  |  |  | 1.3
